In patent US9107967B2, “Apparatus and method for treating stored crops infected with toxins” (Pureline Treatment Systems, LLC, priority 2010, dated 2015):

Assays:
[1] = Treatment of mash from mycotoxin-infected ground corn with heated aqueous ClO2 solution, then testing mash for mycotoxins; conditions: mash exposed to 200 ppm aqueous ClO2 solution heated to 185° F for two hours; untreated 12 ppm
Description: Applicants conducted another study in order to determine the effects of ClO2 on toxins. Applicants obtained corn infected with mycotoxins and mycotoxin-producing microorganisms. Applicants ground the corn kernels and mixed them with water to form a mash, similar to what is used in various fermentation plants. Applicants heated an aqueous ClO2 solution with a concentration of 200 ppm to 185° F. Applicants then exposed the mash to the heated aqueous chlorine dioxide solution for two hours. Applicants drained the aqueous ClO2 solution from the mash. Applicants tested the mash for the presence of mycotoxins. Applicants also tested untreated mash from the same batch for the presence of mycotoxins.

[2] = Treatment of mycotoxin-infected corn kernels with aqueous ClO2 solution, then testing ground corn for mycotoxins; conditions: corn kernels exposed to 400 ppm aqueous ClO2 solution for two hours; untreated corn 9 ppm
Excerpt: Applicants conducted a study in order to determine the effects of ClO2 on toxins. Applicants obtained corn infected with mycotoxins and mycotoxin-producing microorganisms. Applicants exposed the corn kernels to an aqueous ClO2 solution with a concentration of 400 ppm for two hours. Applicants drained the aqueous ClO2 solution from the corn. Applicants ground the corn and tested for the presence of mycotoxins. Applicants also ground untreated corn from the batch and tested that corn for the presence of mycotoxins.

[3] = Application of aqueous ClO2 solution to wheat during tempering or sweating; conditions: 75 ppm aqueous ClO2 solution applied for 12 hours during tempering; approximately 12 ppm prior to application
Description: During processing of certain grains, such as wheat, a sweating or tempering step is used. During this step, the grain is contacted with water. The grain can be contacted with water for various amounts of time. In some examples the contacting occurs over night, in other examples the contacting occurs from 12-24 hours. This can be used as an opportunity the introduce an aqueous ClO2 solution.
Applicants conducted a study where a 75 ppm aqueous ClO2 solution was applied to wheat during tempering or sweating. The aqueous ClO2 solution was applied to the wheat for 12 hours.

[O][Cl+][O-] [ClO2, chlorine dioxide]
concentration of Vomitoxin in treated corn (mash) [1]: 0.5 ppm
concentration of Vomitoxin in treated corn [2]: 2.3 ppm
concentration of Vomitoxin in wheat after application [3]: approximately 1 ppm
